Results as given in patent US12011499B2, “Peptides and compositions for use in cosmetics” (LIPOTRUE, S.L., priority 2020, dated 2024).

How the values were obtained:
[1] = tested on: versican; assay: Modulation of versican synthesis in HDFa cell culture (sandwich ELISA); format: cell-based, human; conditions: 24 hours
Procedure: The effect of Ac-SEQ ID NO: 3-NH2 peptide (synthesized in accordance with examples 1-3 and 5) on versican production was evaluated in vitro using human dermal fibroblasts (hereinafter, HDFa).
Briefly, HDFa cells were seeded in 96-well plates at 1×10^4 cells/well in fibroblasts growth media and maintained for 24 hours at standard culture conditions (37° C., 95% humidity, 5% CO2). After the aforementioned incubation, medium was removed and new medium containing the non-cytotoxic concentrations of Ac-SEQ ID NO: 3-NH2 peptide of: 0.01 mg/ml, 0.05 mg/ml and 0.1 mg/ml was added and incubated for 24 hours. 0.1 μM retinoic acid was included as positive control for versican stimulation and untreated cells were included as basal control. Cell culture media and cell lysate were collected from all wells at the end of the experiment and stored at −80° C. Ex-novo synthesis of versican was measured by means of sandwich ELISA following manufacturer's instructions.

[2] = tested on: tropoelastin; assay: Modulation of tropoelastin synthesis in HDFa cell culture (sandwich ELISA); format: cell-based, human; conditions: 24 hours
Procedure: The potential effect of Ac-SEQ ID NO: 3-NH2 peptide (synthesized in accordance with examples 1-3 and 5) on tropoelastin synthesis was evaluated in vitro using HDFa.
HDFa were put in culture at a density of 1×10^4 cells/well in 96-well plates and incubated for 24 hours with non-cytotoxic increasing concentrations of Ac-SEQ ID NO: 3-NH2 peptide (0.01 mg/ml, 0.05 mg/ml, 0.1 mg/ml and 0.5 mg/ml). Untreated cells were included as basal control. At the end of the monitored experimental time cell culture media and cell lysates were extracted from all wells and stored at −80° C. Ex-novo synthesis of tropoelastin was measured by means of sandwich ELISA following manufacturer's instructions.

[3] = tested on: fibrillin-1; assay: Modulation of fibrillin-1 synthesis in HDFa cell culture (sandwich ELISA); format: cell-based, human; conditions: 48 hours
Procedure: Modulation of fibrilin-1 synthesis by Ac-SEQ ID NO: 3-NH2 peptide (synthesized in accordance with examples 1-3 and 5) was evaluated in vitro using HDFa.
HDFa were seeded in 96-well plates at a density of 1×10^4 cells/well and they were put in contact with three non-cytotoxic concentrations of Ac-SEQ ID NO: 3-N H2 peptide: 0.01 mg/ml, 0.05 mg/ml and 0.1 mg/ml for 48 hours. Untreated cells were included as basal control. At the end of the monitored experiment, cell culture media were extracted from all wells and stored at −80° C. Modulation on fibrillin-1 levels was analyzed by means of sandwhich ELISA following manufacturer's instructions.

[4] = tested on: hyaluronic acid; assay: Modulation of hyaluronic acid synthesis in HDFa cell culture (competitive ELISA); format: cell-based, human; conditions: 48 hours
Procedure: Modulation of Hyaluronic acid production by Ac-SEQ ID NO: 3-NH2 peptide (synthesized in accordance with examples 1-3 and 5) on HDFa was evaluated in vitro.
Briefly, HDFa were seeded in 96-well plates at a density of 1×10^4 cells/well and, then, incubated with non-cytotoxic concentrations of Ac-SEQ ID NO: 3-NH2 peptide, this is 0.01 mg/ml, 0.05 mg/ml, 0.1 mg/ml and 0.5 mg/ml, for 48 hours. 0.1 μM retinoic acid was included as positive control and untreated cells were included as basal control. At the end of the experiment, cell culture media were extracted from all wells and stored at −80° C. Ex-novo synthesis of hyaluronic acid was measured by means of competitive ELISA following manufacturer's instructions.

[5] = tested on: Metalloproteinase-1 (MMP1); assay: Gene expression modulation in HDFa (RTqPCR), MMP1; format: cell-based, human; conditions: 0.1 mg/ml, 6 hours
Procedure: (§1) Changes in gene expression levels are represented as a positive or negative fold-change with regard to the basal control (untreated cells). Bars from top to bottom in the y axis refer to: Metalloproteinase-1 (MMP1), Metalloproteinase-3 (MMP3), Fibronectin 1 (FN1), Fibrillin-1 (FBN1) and Versican (VCAN) genes, and x axis refers to fold change vs basal control.
(§2) Modulation of gene expression by Ac-SEQ ID NO: 3-NH2 peptide (synthesized in accordance with examples 1-3 and 5) on HDFa was evaluated in vitro.
(§3) Briefly, HDFa cells were seeded in duplicate in 6-well plates at a density of 4×10^5 cells/well and they were maintained at standard culture conditions (37° C., 95% humidity, 5% CO2) for 24 hours. Then, cells were treated with Ac-SEQ ID NO: 3-NH2 peptide at the non-cytotoxic concentration of 0.05 and 0.1 mg/ml for additional 6 hours. Untreated cells were used as basal control. […] RNA was then quantified by nanodrop, adjusted in concentration and processed for retrotranscription to cDNA using a commercially available kit (High-Capacity cDNA Reverse Transcription kit—Thermofisher Scientific, USA). Resulting cDNA was used to perform a RTqPCR (Real Time Quantitative Polymerase Chain Reaction) using taqman technology and a panel of probes designed to target specific genes related to extracellular matrix components and structure.

[6] = tested on: Metalloproteinase-3 (MMP3); assay: Gene expression modulation in HDFa (RTqPCR), MMP3; format: cell-based, human; conditions: 0.1 mg/ml, 6 hours
Procedure: as §1, §2, §3

[7] = tested on: Fibronectin 1 (FN1); assay: Gene expression modulation in HDFa (RTqPCR), FN1; format: cell-based, human; conditions: 0.1 mg/ml, 6 hours
Procedure: as §1, §2, §3

[8] = tested on: Fibrillin-1 (FBN1); assay: Gene expression modulation in HDFa (RTqPCR), FBN1; format: cell-based, human; conditions: 0.05 mg/ml, 6 hours
Procedure: as §1, §2, §3

[9] = tested on: Versican (VCAN); assay: Gene expression modulation in HDFa (RTqPCR), VCAN; format: cell-based, human; conditions: 0.05 mg/ml, 6 hours
Procedure: as §1, §2, §3

[10] = tested on: versican; assay: Modulation of versican synthesis on human skin explants (immunostaining); conditions: 0.005 mg/ml in cosmetic formulation, topical on days 0, 2, 4 and 7, explants collected day 9
Procedure: The effect of Ac-SEQ ID NO: 3-NH2 peptide (synthesized in accordance with examples 1-3 and 5) on versican production was evaluated on human skin explants from a donor.
Briefly, skin explants were obtained from a volunteer donor undergoing a plastic surgery procedure. Skin excess was donated for the present study. Skin explants were treated with a cosmetic formulation containing 1% (m/v) from a stock at 0.05% (m/v) of Ac-SEQ ID NO: 3-NH2 (effective final concentration of Ac-SEQ ID NO: 3-NH2, 0.005 mg/ml). On days 0, 2, 4 and 7, the tested product was topically applied on the basis of 2 μl per cm^2 of skin explant and spread using a small spatula.
On day 9, 3 explants from each condition were collected and fixed in a buffered formalin solution. After fixation for 24 hours in buffered formalin, samples were dehydrated and impregnated and embedded in paraffin. 5-μm-thick sections were made using a Leica RM 2125 Minot-type microtome, and the sections were mounted on Superfrost® histological glass slides. The microscopical observations were performed using a Leica DMLB or Olympus BX43 microscope. Pictures were digitized with a numeric DP72 Olympus camera with CellD storing software.
The immunostaining was performed using an automated slide-processing system (Dako, AutostainerPlus). The staining was assessed by microscopical observation and image analysis.

[11] = tested on: fibrillin-1; assay: Modulation of fibrillin-1 synthesis on human skin explants (immunostaining); conditions: 0.005 mg/ml in cosmetic formulation, topical on days 0, 2, 4 and 7, explants collected day 9
Procedure: The effect of Ac-SEQ ID NO: 3-NH2 peptide (synthesized in accordance with examples 1-3 and 5) on fibrillin-1 production was evaluated on human skin explants from a donor.
Briefly, skin explants were treated with a cosmetic formulation containing 1% (m/v) from a stock at 0.05% (m/v) of Ac-SEQ ID NO: 3-N H2 (effective final concentration of Ac-SEQ ID NO: 3-N H2, 0.005 mg/ml). On days 0, 2, 4 and 7, the tested product was topically applied on the basis of 2 μl per cm^2 of skin explant and spread using a small spatula.
On day 9, 3 explants from each condition were collected and frozen at −80° C. The frozen samples were cut into 7-μm-thick sections using a Leica CM 3050 cryostat. Sections were then mounted on Superfrost® plus silanized glass slides. The microscopical observations were performed using a Leica DMLB or Olympus BX43 microscope. Pictures were digitized with a numeric DP72 Olympus camera with CellD storing software.
The nuclei were counterstained using propidium iodide. The immunostaining was performed using an automated slide-processing system (Dako, AutostainerPlus). The staining was assessed by microscopical observation and image analysis.

[12] = tested on: facial skin firmness; assay: Clinical evaluation of facial skin firmness on female volunteers (Dynaskin); format: in vivo, human; conditions: 0.015 mg/ml in cosmetic formulation, two times per day, after 56 days, whole treated group
Procedure: The effect of Ac-SEQ ID NO: 3-NH2 peptide (synthesized in accordance with examples 1-3 and 5) on facial skin firmness was evaluated on 22 Caucasian female volunteers.
Briefly, volunteers applied a cosmetic formulation with 3% (m/v) from a stock at 0.05% (m/v) of Ac-SEQ ID NO: 3-NH2 (effective final concentration of Ac-SEQ ID NO: 3-NH2, 0.015 mg/ml) or without (placebo). The application regime was of two times per day during 56 days, on early morning and before bedtime. Cosmetic formulations were applied on either half of clean face in order to compare the effect of placebo and the active on the same volunteer.
On days 0, 7, 14 and 56, a Dynaskin device was used on each volunteer in order to measure the firmness quality of the skin according to three parameters: volume (mm^3), area (mm^2) and depth (mm). Dynaskin uses an air beam projection onto the cheek area causing a deformation of the skin. This deformation magnitude is measured by means of a specific software collecting data of the above three parameters for each volunteer and on each hemiface.

[13] = tested on: HDFa; assay: Cytotoxicity of tested concentrations on HDFa; format: cell-based, human; conditions: 0.01, 0.05, 0.1 and 0.5 mg/ml

MMP1 gene expression, fold change vs basal control [5]: −1.33
MMP3 gene expression, fold change vs basal control [6]: −1.20
Substance: Ac-ALHKVK-NH2 [Ac-SEQ ID NO: 3-NH2, Ac-Ala-Leu-His-Lys-Val-Lys-NH2]
increase in versican synthesis compared to basal control ([1]; 0.01 mg/ml): 24%
increase in versican synthesis compared to basal control ([1]; 0.05 mg/ml): 35%
increase in versican synthesis compared to basal control ([1]; 0.10 mg/ml): 62%
increase in tropoelastin synthesis compared to basal control ([2]; 0.01 mg/ml): 3%
increase in tropoelastin synthesis compared to basal control ([2]; 0.05 mg/ml): 11%
increase in tropoelastin synthesis compared to basal control ([2]; 0.10 mg/ml): 20%
increase in tropoelastin synthesis compared to basal control ([2]; 0.50 mg/ml): 31%
increase in fibrillin-1 synthesis compared to basal control ([3]; 0.01 mg/ml): 18%
increase in fibrillin-1 synthesis compared to basal control ([3]; 0.05 mg/ml): 30%
increase in fibrillin-1 synthesis compared to basal control ([3]; 0.10 mg/ml): 41%
increase in hyaluronic acid production compared to basal control ([4]; 0.01 mg/ml): 3%
increase in hyaluronic acid production compared to basal control ([4]; 0.05 mg/ml): 8%
increase in hyaluronic acid production compared to basal control ([4]; 0.1 mg/ml): 10%
increase in hyaluronic acid production compared to basal control ([4]; 0.5 mg/ml): 18%
Fibronectin 1 gene expression, fold change vs basal control [7]: 1.41
Fibrillin 1 gene expression, fold change vs basal control [8]: 1.55
Versican gene expression, fold change vs basal control [9]: 1.22
increase in skin surface occupied by versican protein compared to basal control [10]: 29%
increase in skin surface occupied by fibrillin-1 protein compared to basal control [11]: 24%
decrease in area of cheek deformation versus initial time [12]: 7%
decrease in depth of cheek deformation versus initial time [12]: 14.5%
decrease in volume of cheek deformation versus initial time [12]: 20%
cytotoxicity on HDFa [13]: non-cytotoxic
